Data published in patent US20240368096A1 (Enanta Pharmaceuticals, Inc., priority 2022, published 2024).

tested on: HBV; assay: HBV infection in HepG2-NTCP cells (HBeAg AlphaLISA in supernatants); type: cell-based; settings: Hepatitis B virus, 192 h; HBV infection of HepG2-NTCP cells; HBeAg in supernatants at day 8 post infection; read-out: Cellular EC50
How it was run: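 HepG2-NTCP A3 cells were pre-incubated 2 h with 3-fold serially diluted compounds, then infected with HBV at 2000 GE/cell with 4% PEG (0.5% DMSO final). After washing on day 1, cells stayed in 2.5% DMSO medium; supernatant HBeAg measured by AlphaLISA on day 8, EC50 versus DMSO controls.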

| SMILES | EC50 [nM] |
| --- | --- |
| CN1[C@H](C2CCCCC2)CN(c2ccccc2)c2cc(OC3CCN(C(=O)OC(C)(C)C)CC3)c(-c3ccc(F)c(C(=O)O)c3)cc2S1(=O)=O [Example 393, (R)-5-(7-((1-(tert-butoxycarbonyl)piperidin-4-yl)oxy)-3-cyclohexyl-2-methyl-1,1-dioxido-5-phenyl-2,3,4,5-tetrahydrobenzo[f][1,2,5]thiadiazepin-8-yl)-2-fluorobenzoic acid] | < 100 |
| CN1[C@H](C2CCCCC2)CN(c2ccccc2)c2cc(OC3CCNCC3)c(-c3ccc(F)c(C(=O)O)c3)cc2S1(=O)=O [Example 394, (R)-5-(3-cyclohexyl-2-methyl-1,1-dioxido-5-phenyl-7-(piperidin-4-yloxy)-2,3,4,5-tetrahydrobenzo[f][1,2,5]thiadiazepin-8-yl)-2-fluorobenzoic acid] | > 1000 |
| CC(=O)N1CCC(Oc2cc3c(cc2-c2ccc(F)c(C(=O)O)c2)S(=O)(=O)N(C)[C@H](C2CCCCC2)CN3c2ccccc2)CC1 [Example 395, (R)-5-(7-((1-acetylpiperidin-4-yl)oxy)-3-cyclohexyl-2-methyl-1,1-dioxido-5-phenyl-2,3,4,5-tetrahydrobenzo[f][1,2,5]thiadiazepin-8-yl)-2-fluorobenzoic acid] | 100 to 1000 |
| CN1[C@H](C2CCCCC2)CN(c2ccccc2)c2cc(O[C@@H]3CCCNC3)c(-c3ccc(F)c(C(=O)O)c3)cc2S1(=O)=O [Example 399] | > 1000 |
| CC(C)NC(=O)N1CCC(Oc2cc3c(cc2-c2ccc(F)c(C(=O)O)c2)S(=O)(=O)N(C)[C@H](C2CCCCC2)CN3c2ccccc2)CC1 [Example 400, (R)-5-(3-cyclohexyl-7-((1-(isopropylcarbamoyl)piperidin-4-yl)oxy)-2-methyl-1,1-dioxido-5-phenyl-2,3,4,5-tetrahydrobenzo[f][1,2,5]thiadiazepin-8-yl)-2-fluorobenzoic acid] | 100 to 1000 |
| Cc1ccc(F)cc1Oc1cc2c(cc1-c1ccc(F)c(C(=O)O)c1)S(=O)(=O)N(C)[C@H](C1CCCCC1)CN2c1ccccc1 [Example 413] | 100 to 1000 |
| CN1[C@H](C2CCCCC2)CN(c2ccccc2)c2cc(Oc3ccccn3)c(-c3ccc(F)c(C(=O)O)c3)cc2S1(=O)=O [Example 414] | 100 to 1000 |
| CN1[C@H](C2CCCCC2)CN(c2ccccc2)c2cc(Oc3cccnc3)c(-c3ccc(F)c(C(=O)O)c3)cc2S1(=O)=O [Example 415] | 100 to 1000 |
| CN1[C@H](C2CCCCC2)CN(c2ccccc2)c2cc(Oc3ccncc3)c(-c3ccc(F)c(C(=O)O)c3)cc2S1(=O)=O [Example 416] | > 1000 |
| CCCC[C@@H]1CN(c2ccccc2)c2cc(Oc3cccc(OC)c3)c(-c3ccc(F)c(C(=O)O)c3)cc2S(=O)(=O)N1C [Example 420] | 100 to 1000 |
| CCCC[C@@H]1CN(c2ccccc2)c2cc(Oc3ccc(F)cc3)c(-c3ccc(F)c(C(=O)O)c3)cc2S(=O)(=O)N1C [Example 421] | 100 to 1000 |
| CCCC[C@@H]1CN(c2ccccc2)c2cc(Oc3ccccc3Cl)c(-c3ccc(F)c(C(=O)O)c3)cc2S(=O)(=O)N1C [Example 422] | 100 to 1000 |
| CC(C)C[C@@H]1CN(c2ccccc2)c2cc(Oc3ccc(C(F)(F)F)cc3)c(-c3ccc(F)c(C(=O)O)c3)cc2S(=O)(=O)N1C [Example 426] | 100 to 1000 |
| COc1ccccc1Oc1cc2c(cc1-c1ccc(F)c(C(=O)O)c1)S(=O)(=O)N(C)[C@H](CC(C)C)CN2c1ccccc1 [Example 428] | < 100 |
| CC(C)C[C@@H]1CN(c2ccccc2)c2cc(Oc3ccccc3F)c(-c3ccc(F)c(C(=O)O)c3)cc2S(=O)(=O)N1C [Example 429] | < 100 |
| CC(C)C[C@@H]1CN(c2ccccc2)c2cc(Oc3ccc(F)cc3)c(-c3ccc(F)c(C(=O)O)c3)cc2S(=O)(=O)N1C [Example 430] | < 100 |

| SMILES | EC50 [nM] |
| --- | --- |
| CC(C)C[C@@H]1CN(c2ccccc2)c2cc(Oc3ccccc3Cl)c(-c3ccc(F)c(C(=O)O)c3)cc2S(=O)(=O)N1C [Example 431] | < 100 |
| CC(C)C[C@@H]1CN(c2ccccc2)c2cc(Oc3cccc(Cl)c3)c(-c3ccc(F)c(C(=O)O)c3)cc2S(=O)(=O)N1C [Example 432] | 100 to 1000 |
| CC(C)C[C@@H]1CN(c2ccccc2)c2cc(Oc3ccc(Cl)cc3)c(-c3ccc(F)c(C(=O)O)c3)cc2S(=O)(=O)N1C [Example 433] | 100 to 1000 |
| CC(C)C[C@@H]1CN(c2ccccc2)c2cc(Oc3ccc(Cl)c(C(F)(F)F)c3)c(-c3ccc(F)c(C(=O)O)c3)cc2S(=O)(=O)N1C [Example 434] | 100 to 1000 |
| CC(C)C[C@@H]1CN(c2ccccc2)c2cc(Oc3cc(Cl)cc(Cl)c3)c(-c3ccc(F)c(C(=O)O)c3)cc2S(=O)(=O)N1C [Example 435] | < 100 |
| Cc1ccc(Cl)c(Oc2cc3c(cc2-c2ccc(F)c(C(=O)O)c2)S(=O)(=O)N(C)[C@H](CC(C)C)CN3c2ccccc2)c1 [Example 436] | < 100 |
| CC(C)C[C@@H]1CN(c2ccccc2)c2cc(Oc3ccccc3OC(F)(F)F)c(-c3ccc(F)c(C(=O)O)c3)cc2S(=O)(=O)N1C [Example 437] | < 100 |
| CC(C)C[C@@H]1CN(c2ccccc2)c2cc(Oc3cccc(OC(F)(F)F)c3)c(-c3ccc(F)c(C(=O)O)c3)cc2S(=O)(=O)N1C [Example 438] | < 100 |
| CC(C)C[C@@H]1CN(c2ccccc2)c2cc(Oc3ccc(OC(F)(F)F)cc3)c(-c3ccc(F)c(C(=O)O)c3)cc2S(=O)(=O)N1C [Example 439] | < 100 |
| CC(C)C[C@@H]1CN(c2ccccc2)c2cc(OC(C)(C)C)c(-c3ccc(Cl)c(C(=O)O)c3)cc2S(=O)(=O)N1C [Example 440] | < 100 |
| CC(C)C[C@@H]1CN(c2ccccc2)c2cc(OC34CC5CC(CC(C5)C3)C4)c(-c3ccc(F)c(C(=O)O)c3)cc2S(=O)(=O)N1C [Example 441] | < 100 |
| CC(C)C[C@@H]1CN(c2ccccc2)c2cc(O[C@@H]3C[C@H](C)CCC3C(C)C)c(-c3ccc(F)c(C(=O)O)c3)cc2S(=O)(=O)N1C (stereo partly drawn) [Example 442] | < 100 |
| CC(C)C[C@@H]1CN(c2ccccc2)c2cc(OC3COC3)c(-c3ccc(F)c(C(=O)O)c3)cc2S(=O)(=O)N1C [Example 443] | 100 to 1000 |
| CC(C)C[C@@H]1CN(c2ccccc2)c2cc(OC3CC4(COC4)C3)c(-c3ccc(F)c(C(=O)O)c3)cc2S(=O)(=O)N1C [Example 444] | 100 to 1000 |
| COCCOc1cc2c(cc1-c1ccc(Cl)c(C(=O)O)c1)S(=O)(=O)N(C)[C@H](CC(C)C)CN2c1ccccc1 [Example 445] | 100 to 1000 |
| CC(C)C[C@@H]1CN(c2ccccc2)c2cc(O[C@H]3CCOC3)c(-c3ccc(F)c(C(=O)O)c3)cc2S(=O)(=O)N1C [Example 446] | 100 to 1000 |

Continued, values first:

| EC50 [nM] | SMILES |
| --- | --- |
| < 100 | CN1[C@H](C2CCCCC2)CN(c2ccccc2)c2cc(O[C@@H]3CCN(C(=O)OC(C)(C)C)C3)c(-c3ccc(F)c(C(=O)O)c3)cc2S1(=O)=O [Example 397] |
| < 100 | CN1[C@H](C2CCCCC2)CN(c2ccccc2)c2cc(OC3CN(C(=O)OC(C)(C)C)C3)c(-c3ccc(F)c(C(=O)O)c3)cc2S1(=O)=O [Example 398] |
| < 100 | CN1[C@H](C2CCCCC2)CN(c2ccccc2)c2cc(Oc3ccccc3F)c(-c3ccc(Cl)c(C(=O)O)c3)cc2S1(=O)=O [Example 401, (R)-2-chloro-5-(3-cyclohexyl-7-(2-fluorophenoxy)-2-methyl-1,1-dioxido-5-phenyl-2,3,4,5-tetrahydrobenzo[f][1,2,5]thiadiazepin-8-yl)benzoic acid] |
| < 100 | CN1[C@H](C2CCCCC2)CN(c2ccccc2)c2cc(Oc3cccc(F)c3F)c(-c3ccc(F)c(C(=O)O)c3)cc2S1(=O)=O [Example 402] |
| < 100 | CN1[C@H](C2CCCCC2)CN(c2ccccc2)c2cc(Oc3cc(F)ccc3F)c(-c3ccc(F)c(C(=O)O)c3)cc2S1(=O)=O [Example 403] |
| < 100 | CN1[C@H](C2CCCCC2)CN(c2ccccc2)c2cc(Oc3ccc(F)c(F)c3)c(-c3ccc(F)c(C(=O)O)c3)cc2S1(=O)=O [Example 404] |
| < 100 | CN1[C@H](C2CCCCC2)CN(c2ccccc2)c2cc(Oc3cc(F)cc(F)c3)c(-c3ccc(F)c(C(=O)O)c3)cc2S1(=O)=O [Example 405] |
| < 100 | COc1cc(F)ccc1Oc1cc2c(cc1-c1ccc(F)c(C(=O)O)c1)S(=O)(=O)N(C)[C@H](C1CCCCC1)CN2c1ccccc1 [Example 406] |
| < 100 | COc1c(F)cccc1Oc1cc2c(cc1-c1ccc(F)c(C(=O)O)c1)S(=O)(=O)N(C)[C@H](C1CCCCC1)CN2c1ccccc1 [Example 407] |
| < 100 | COc1cc(F)cc(Oc2cc3c(cc2-c2ccc(F)c(C(=O)O)c2)S(=O)(=O)N(C)[C@H](C2CCCCC2)CN3c2ccccc2)c1 [Example 409] |
| < 100 | Cc1c(F)cccc1Oc1cc2c(cc1-c1ccc(F)c(C(=O)O)c1)S(=O)(=O)N(C)[C@H](C1CCCCC1)CN2c1ccccc1 [Example 410] |
| < 100 | Cc1ccc(Oc2cc3c(cc2-c2ccc(F)c(C(=O)O)c2)S(=O)(=O)N(C)[C@H](C2CCCCC2)CN3c2ccccc2)cc1F [Example 411] |
| < 100 | Cc1cc(F)cc(Oc2cc3c(cc2-c2ccc(F)c(C(=O)O)c2)S(=O)(=O)N(C)[C@H](C2CCCCC2)CN3c2ccccc2)c1 [Example 412] |
| < 100 | CCCC[C@@H]1CN(c2ccccc2)c2cc(Oc3ccc(Cl)cc3)c(-c3ccc(F)c(C(=O)O)c3)cc2S(=O)(=O)N1C [Example 418] |
| < 100 | CCCC[C@@H]1CN(c2ccccc2)c2cc(Oc3ccccc3C(F)(F)F)c(-c3ccc(F)c(C(=O)O)c3)cc2S(=O)(=O)N1C [Example 419] |
| < 100 | CCCC[C@@H]1CN(c2ccccc2)c2cc(Oc3cccc(Cl)c3)c(-c3ccc(F)c(C(=O)O)c3)cc2S(=O)(=O)N1C [Example 423] |
| < 100 | CC(C)C[C@@H]1CN(c2ccccc2)c2cc(Oc3ccccc3F)c(-c3ccc(Cl)c(C(=O)O)c3)cc2S(=O)(=O)N1C [Example 424] |
| < 100 | CC(C)C[C@@H]1CN(c2ccccc2)c2cc(Oc3cccc(C(F)(F)F)c3)c(-c3ccc(F)c(C(=O)O)c3)cc2S(=O)(=O)N1C [Example 425] |
| < 100 | COc1cccc(Oc2cc3c(cc2-c2ccc(F)c(C(=O)O)c2)S(=O)(=O)N(C)[C@H](CC(C)C)CN3c2ccccc2)c1 [Example 427] |
